Measurements as given in patent US5284947A, “Multiple drug resistance-attenuating compounds” (Abbott Laboratories, priority 1992, dated 1994).
≈ marks a conversion by molar mass, not a printed value. Like-named read-outs stand apart in the source and are kept apart here.

Legend:
[1] = test system: KB V1 cells (multiple drug resistant); test: Chemosensitization (cytotoxicity) assay of multiple drug resistant cells, MTT; format: cell-based; settings: Homo sapiens, KB-V1, 72 h
Protocol: (§1) Cytotoxicity assays to determine 50% inhibition of growth (IC50) were done in 96-well tissue culture microtiter trays (Costar, Cambridge, Mass.). Cell growth was determined as follows: KB 3-1 (sensitive) and KB V1 (multiple drug resistant) cells grown in Dulbecco's modified Eagle medium (Gibco BRL, Division of Life Technologies, Inc., Grand Island, N.Y.) were added to each microtiter well at 1×10^4 cells in 200 μL of growth medium in the presence and absence of verapamil, 5-acetylardeemin and 5-acetyl-15b-β-hydroxyardeemin at […]. Anticancer cytotoxic agents adriamycin (ADR), vinblastine (VBL) and vincristine (VCR) (Sigma, St. Louis, Mo.) were added in final concentrations ranging from 0.0001 to 10 μg/mL. Cells were incubated at 37° C. in a humidified atmosphere of 4% CO2 for 72 hours. Cell growth was measured by the reduction of 3-(4,5-dimethyl-thiazol-2-yl)-2,5-diphenyltetrazolium bromide (MTT), added to each well at 0.1 mg/mL. The plates were incubated at 37° C. in humidified 4% CO2 for 3 hours. The trays were spun at 1000×g for 10 minutes, the supernatant removed by aspiration and the residual formazan reduction product dissolved in 100 μL of DMSO. Growth was quantitated by measuring the optical absorbance in each well at 570 nm in a microtiter plate reader.

[2] = test system: KB 3-1 cells (sensitive); test: Cytotoxicity assay in drug-sensitive cells, MTT; format: cell-based; settings: Homo sapiens, modulator: none, 72 hours
Protocol: as §1

[3] = test system: certain mammalian target cells; settings: known compounds; cited from earlier work

COc1cccc2c1C(=O)c1c(O)c3c(c(O)c1C2=O)C[C@@](O)(C(=O)CO)C[C@@H]3O[C@H]1C[C@H](N)[C@H](O)[C@H](C)O1 [ADR, adriamycin]
IC50 ([1]; read-out: ADR-IC50): 3 µg/mL
IC50 ([2]; read-out: ADR-IC50): 0.012 µg/mL (≈ 22.1 nM)

CC[C@]1(O)C[C@@H]2CN(CCc3c([nH]c4ccccc34)[C@@](C(=O)OC)(c3cc4c(cc3OC)N(C)[C@H]3[C@@](O)(C(=O)OC)[C@H](OC(C)=O)[C@]5(CC)C=CCN6CC[C@]43[C@@H]65)C2)C1 [VBL, vinblastine]
IC50 ([1]; read-out: VBL-IC50): 1.2 µg/mL
IC50 ([2]; read-out: VBL-IC50): 0.001 µg/mL (≈ 1.23 nM)

CC[C@]1(O)C[C@H]2CN(CCc3c([nH]c4ccccc34)[C@@](C(=O)OC)(c3cc4c(cc3OC)N(C=O)[C@H]3[C@@](O)(C(=O)OC)[C@H](OC(C)=O)[C@]5(CC)C=CCN6CC[C@]43[C@@H]65)C2)C1 [VCR, vincristine]
IC50 ([1]; read-out: VCR-IC50): 7 µg/mL
IC50 ([2]; read-out: VCR-IC50): 0.001 µg/mL (≈ 1.21 nM)

COc1ccc(CCN(C)CCCC(C#N)(c2ccc(OC)c(OC)c2)C(C)C)cc1OC (stereo not drawn) [Verapamil, verapamil]
attenuation of drug resistance [3]: attenuate, if not reverse, drug resistance in certain mammalian target cells

CCC1=C[C@@H]2CN3CCc4c([nH]c5ccccc45)[C@@](C(=O)OC)(C2)[C@@H]13 [catharanthine]
attenuation of drug resistance [3]: attenuate, if not reverse, drug resistance in certain mammalian target cells

COc1ccc([C@@H]2Sc3ccccc3N(CCN(C)C)C(=O)[C@@H]2OC(C)=O)cc1 [diltiazem]
attenuation of drug resistance [3]: attenuate, if not reverse, drug resistance in certain mammalian target cells
